This passage reports IC50 results from US20210317134A1, “UBIQUITIN-SPECIFIC-PROCESSING PROTEASE 7 (USP7) MODULATORS AND USES THEREOF” (RAPT THERAPEUTICS, INC., priority 2019, published 2021).

Structures are written as SMILES. Where only a bound is given, the exact number is not on record here.

In the assay the target is USP7 (Homo sapiens, UniProt Q93009). Kind of assay: USP7 inhibitory potency (Table 1). In kind it is biochemical.
USP7, sequence (Q93009 whole entry): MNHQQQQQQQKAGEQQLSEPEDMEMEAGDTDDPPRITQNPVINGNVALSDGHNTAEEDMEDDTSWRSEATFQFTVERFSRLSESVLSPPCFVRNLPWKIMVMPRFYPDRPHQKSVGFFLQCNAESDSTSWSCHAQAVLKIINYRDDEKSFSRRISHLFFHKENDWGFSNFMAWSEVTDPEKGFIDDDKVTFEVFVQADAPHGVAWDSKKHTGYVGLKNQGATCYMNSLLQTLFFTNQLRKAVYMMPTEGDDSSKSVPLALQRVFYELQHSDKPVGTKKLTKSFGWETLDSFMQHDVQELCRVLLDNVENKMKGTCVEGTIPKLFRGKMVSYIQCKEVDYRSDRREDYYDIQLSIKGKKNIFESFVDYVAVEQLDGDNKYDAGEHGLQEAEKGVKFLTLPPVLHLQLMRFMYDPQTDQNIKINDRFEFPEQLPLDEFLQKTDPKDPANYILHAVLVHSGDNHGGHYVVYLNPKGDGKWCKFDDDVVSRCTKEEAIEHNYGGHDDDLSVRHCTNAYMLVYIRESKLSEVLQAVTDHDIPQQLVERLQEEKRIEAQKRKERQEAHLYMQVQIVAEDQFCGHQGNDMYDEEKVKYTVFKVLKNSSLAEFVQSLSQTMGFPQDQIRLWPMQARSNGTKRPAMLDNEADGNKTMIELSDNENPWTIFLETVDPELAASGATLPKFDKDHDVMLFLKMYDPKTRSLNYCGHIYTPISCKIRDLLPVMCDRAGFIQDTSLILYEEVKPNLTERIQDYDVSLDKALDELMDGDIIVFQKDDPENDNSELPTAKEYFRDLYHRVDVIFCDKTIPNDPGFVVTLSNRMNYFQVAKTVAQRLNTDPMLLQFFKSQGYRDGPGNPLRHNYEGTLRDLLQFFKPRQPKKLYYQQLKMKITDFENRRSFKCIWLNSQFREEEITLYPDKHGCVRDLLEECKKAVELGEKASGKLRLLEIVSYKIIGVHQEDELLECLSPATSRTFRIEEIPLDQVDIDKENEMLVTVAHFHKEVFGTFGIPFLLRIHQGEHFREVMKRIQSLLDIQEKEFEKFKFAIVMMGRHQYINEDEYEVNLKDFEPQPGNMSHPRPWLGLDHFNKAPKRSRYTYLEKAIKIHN

Compound `O=C([C@H]1Cc2cc(Cl)cc(-c3ccnc4cc(CO)sc34)c2O1)N1CCn2cnnc2C1` [(R)-(5-chloro-7-(2-(hydroxymethyl)thieno[3,2-b]pyridin-7-yl)-2,3-dihydrobenzofuran-2-yl)(5,6-dihydro-[1,2,4]triazolo[4,3-a]pyrazin-7(8H)-yl)methanone] came in with an IC50 of 1 to 10 µM.
The figure for `C[C@H]1CN(C(=O)C2Cc3cc(Cl)cc(-c4ccnc5[nH]ccc45)c3O2)CCN1` (stereo partly drawn) [(5-chloro-7-(1H-pyrrolo[2,3-b]pyridin-4-yl)-2,3-dihydrobenzofuran-2-yl)((S)-3-methylpiperazin-1-yl)methanone] is 1 to 10 µM.
`C[C@@H]1CCN(Cc2cc3nccc(-c4cc(Cl)cc5c4O[C@@H](C(=O)N4CCNCC4)C5)c3s2)C1=O` [(R)-1-((7-((R)-5-chloro-2-(piperazine-1-carbonyl)-2,3-dihydrobenzofuran-7-yl)thieno[3,2-b]pyridin-2-yl)methyl)-3-methylpyrrolidin-2-one] gave an IC50 below 1 µM.
In the case of `CC(C)S(=O)(=O)NCCc1cc2nccc(-c3cc(Cl)cc4c3O[C@@H](C(=O)N3CCNCC3)C4)c2s1` [(R)-N-(2-(7-(5-chloro-2-(piperazine-1-carbonyl)-2,3-dihydrobenzofuran-7-yl)thieno[3,2-b]pyridin-2-yl)ethyl)propane-2-sulfonamide] it was below 1 µM.
In the case of `CC[C@H](O)c1cc2nccc(-c3cc(Cl)cc4c3O[C@@H](C(=O)N3CCNCC3)C4)c2s1` [((R)-5-chloro-7-(2-((S)-1-hydroxypropyl)thieno[3,2-b]pyridin-7-yl)-2,3-dihydrobenzofuran-2-yl)(piperazin-1-yl)methanone], the concentration for half-maximal inhibition (IC50) is below 1 µM.
The figure for `Clc1cc2c(c(-c3ccnc4c3CC3(COCOC3)C4)c1)O[C@@H](c1onc3c1CNCC3)C2` [(R)-4-(5-chloro-2-(4,5,6,7-tetrahydroisoxazolo[4,3-c]pyridin-3-yl)-2,3-dihydrobenzofuran-7-yl)-5,7-dihydrospiro[cyclopenta[b]pyridine-6,5′-[1,3]dioxane]] is below 1 µM.
The figure for `Cn1nc2c(c1[C@H]1Cc3cc(Cl)cc(-c4ncnc5cc(Cl)ccc45)c3O1)CNCC2` [(R)-7-chloro-4-(5-chloro-2-(2-methyl-4,5,6,7-tetrahydro-2H-pyrazolo[4,3-c]pyridin-3-yl)-2,3-dihydrobenzofuran-7-yl)quinazoline] is below 1 µM; for `CN1CCC(N2CCN(C(=O)C3Cc4cc(Cl)cc(-c5ccnc6[nH]ccc56)c4O3)CC2)CC1` (centres unmarked) [(5-chloro-7-(1H-pyrrolo[2,3-b]pyridin-4-yl)-2,3-dihydrobenzofuran-2-yl)(4-(1-methylpiperidin-4-yl)piperazin-1-yl)methanone] it is 10 to 30 µM; for `OCc1cc2ncnc(-c3cc(Cl)cc4c3O[C@@H](c3onc5c3CNCC5)C4)c2s1` [(R)-(4-(5-chloro-2-(4,5,6,7-tetrahydroisoxazolo[4,3-c]pyridin-3-yl)-2,3-dihydrobenzofuran-7-yl)thieno[3,2-d]pyrimidin-6-yl)methanol] it is below 1 µM.
The figure for `CC1CC(=O)N(Cc2cc3nccc(-c4cc(Cl)cc5c4O[C@@H](C(=O)N4CCNCC4)C5)c3s2)C1` (stereo partly drawn) [1-((7-((R)-5-chloro-2-(piperazine-1-carbonyl)-2,3-dihydrobenzofuran-7-yl)thieno[3,2-b]pyridin-2-yl)methyl)-4-methylpyrrolidin-2-one] is below 1 µM.
Regarding `O=C(C1Cc2cc(Cl)cc(-c3ccnc4[nH]ccc34)c2O1)N1CCC(O)(c2ccncc2)CC1` (centres unmarked) [(5-chloro-7-(1H-pyrrolo[2,3-b]pyridin-4-yl)-2,3-dihydrobenzofuran-2-yl)(4-hydroxy-4-(pyridin-4-yl)piperidin-1-yl)methanone], the IC50 is below 1 µM.
As for `CCC(O)c1cc2nccc(-c3cc(Cl)cc4c3O[C@@H](c3onc5c3CNCC5)C4)c2s1` (stereo partly drawn) [drawing 1523, 1-(7-((R)-5-chloro-2-(4,5,6,7-tetrahydroisoxazolo[4,3-c]pyridin-3-yl)-2,3-dihydrobenzofuran-7-yl)thieno[3,2-b]pyridin-2-yl)propan-1-ol], the 50% inhibitory concentration (IC50) was below 1 µM.
In the case of `O=C1CCC(=O)N1Cc1cc2ncnc(-c3cc(Cl)cc4c3O[C@@H](c3onc5c3CNCC5)C4)c2o1` [(R)-1-((4-(5-chloro-2-(4,5,6,7-tetrahydroisoxazolo[4,3-c]pyridin-3-yl)-2,3-dihydrobenzofuran-7-yl)furo[3,2-d]pyrimidin-6-yl)methyl)pyrrolidine-2,5-dione] it was below 1 µM; in that of `O=C(Nc1ccc(F)cc1)c1cc2c(-c3cc(Cl)cc4c3OC(C(=O)N3CCNCC3)C4)ccnc2[nH]1` (centres unmarked) [4-(5-chloro-2-(piperazine-1-carbonyl)-2,3-dihydrobenzofuran-7-yl)-N-(4-fluorophenyl)-1H-pyrrolo[2,3-b]pyridine-2-carboxamide], 1 to 10 µM; in that of `Clc1cc2c(c(-c3ccnc4ccsc34)c1)O[C@@H](c1ocnc1CN1CCC1)C2` [(R)-4-(azetidin-1-ylmethyl)-5-(5-chloro-7-(thieno[3,2-b]pyridin-7-yl)-2,3-dihydrobenzofuran-2-yl)oxazole], below 1 µM.
`CN(C)C(=O)CCc1cc2nccc(-c3cc(Cl)cc4c3O[C@@H](C(=O)N3CCNCC3)C4)c2s1` [(R)-3-(7-(5-chloro-2-(piperazine-1-carbonyl)-2,3-dihydrobenzofuran-7-yl)thieno[3,2-b]pyridin-2-yl)-N,N-dimethylpropanamide] registered an IC50 of 1 to 10 µM.
In turn, `CN(C)C1CCN(C(=O)C2Cc3cc(Cl)cc(-c4ccnc5[nH]ccc45)c3O2)CC1` (centres unmarked) [(5-chloro-7-(1H-pyrrolo[2,3-b]pyridin-4-yl)-2,3-dihydrobenzofuran-2-yl)(4-(dimethylamino)piperidin-1-yl)methanone] gave an IC50 of 1 to 10 µM.
The figure for `C[C@H](O)Cc1cc2c(-c3cc(Cl)cc4c3OC(C(=O)N3CCNCC3)C4)ccnc2[nH]1` (some centres unmarked) is 1 to 10 µM; for `CN(C)[C@@H]1CCN(C(=O)[C@H]2Cc3cc(Cl)cc(-c4ccnc5ccsc45)c3O2)C1` [((R)-5-chloro-7-(thieno[3,2-b]pyridin-7-yl)-2,3-dihydrobenzofuran-2-yl)((R)-3-(dimethylamino)pyrrolidin-1-yl)methanone] it is below 1 µM; for `N#Cc1cc2nccc(-c3cc(Cl)cc4c3O[C@@H](C(=O)N3CCNCC3)C4)c2s1` [(R)-7-(5-chloro-2-(piperazine-1-carbonyl)-2,3-dihydrobenzofuran-7-yl)thieno[3,2-b]pyridine-2-carbonitrile] it is 1 to 10 µM.
Compound `O=C1CCC(=O)N1Cc1cc2nccc(-c3cc(Cl)cc4c3O[C@@H](c3onc5c3CNCC5)C4)c2s1` [(R)-1-((7-(5-chloro-2-(4,5,6,7-tetrahydroisoxazolo[4,3-c]pyridin-3-yl)-2,3-dihydrobenzofuran-7-yl)thieno[3,2-b]pyridin-2-yl)methyl)pyrrolidine-2,5-dione] displayed an IC50 below 1 µM.
In the case of `O=C([C@H]1Cc2cc(Cl)cc(-c3ccnc4cc(C(O)CCl)sc34)c2O1)N1CCNCC1` (stereo partly drawn) [((2R)-5-chloro-7-(2-(2-chloro-1-hydroxyethyl)thieno[3,2-b]pyridin-7-yl)-2,3-dihydrobenzofuran-2-yl)(piperazin-1-yl)methanone] it was below 1 µM; in that of `N#Cc1ccc2nccc(-c3cc(Cl)cc4c3OC(C(=O)N3CCNCC3)C4)c2c1` (centres unmarked) [4-(5-chloro-2-(piperazine-1-carbonyl)-2,3-dihydrobenzofuran-7-yl)quinoline-6-carbonitrile], 10 to 30 µM; in that of `O=C(C1Cc2cc(Cl)cc(-c3ccnc4[nH]ccc34)c2O1)N1CCN([C@H]2CC[C@H](c3ccccc3)CC2)CC1` (some centres unmarked) [(5-chloro-7-(1H-pyrrolo[2,3-b]pyridin-4-yl)-2,3-dihydrobenzofuran-2-yl)(4-((1s,4r)-4-phenylcyclohexyl)piperazin-1-yl)methanone], 1 to 10 µM.
In the case of `CNC(=O)c1ccc2c(-c3cc(Cl)cc4c3OC(C(=O)N3CCNCC3)C4)ccnc2c1` (centres unmarked) [4-(5-chloro-2-(piperazine-1-carbonyl)-2,3-dihydrobenzofuran-7-yl)-N-methylquinoline-7-carboxamide] it was 1 to 10 µM.
The figure for `OC1(c2cc3nccc(-c4cc(Cl)cc5c4O[C@@H](c4onc6c4CNCC6)C5)c3s2)COC1` [(R)-3-(7-(5-chloro-2-(4,5,6,7-tetrahydroisoxazolo[4,3-c]pyridin-3-yl)-2,3-dihydrobenzofuran-7-yl)thieno[3,2-b]pyridin-2-yl)oxetan-3-ol] is below 1 µM; for `CN(C)[C@@H]1CCc2noc([C@H]3Cc4cc(Cl)cc(-c5ccnc6cc(CO)sc56)c4O3)c2C1` [(7-((R)-5-chloro-2-((R)-5-(dimethylamino)-4,5,6,7-tetrahydrobenzo[c]isoxazol-3-yl)-2,3-dihydrobenzofuran-7-yl)thieno[3,2-b]pyridin-2-yl)methanol] it is below 1 µM; for `CC[C@H](O)c1cc2nccc(-c3cc(Cl)cc4c3O[C@@H](c3onc5c3CNCC5)C4)c2s1` [(S)-1-(7-((R)-5-chloro-2-(4,5,6,7-tetrahydroisoxazolo[4,3-c]pyridin-3-yl)-2,3-dihydrobenzofuran-7-yl)thieno[3,2-b]pyridin-2-yl)propan-1-ol] it is below 1 µM.
The compound `Cn1nc2c(c1[C@H]1Cc3cc(Cl)cc(-c4ccnc5cc(CO)sc45)c3O1)CNCC2` [(R)-(7-(5-chloro-2-(2-methyl-4,5,6,7-tetrahydro-2H-pyrazolo[4,3-c]pyridin-3-yl)-2,3-dihydrobenzofuran-7-yl)thieno[3,2-b]pyridin-2-yl)methanol] returned a half-inhibitory concentration (IC50) below 1 µM.
The figure for `CCC(O)c1cc2nccc(-c3cc(Cl)cc4c3O[C@@H](c3ocnc3CN(C)C)C4)c2s1` (stereo partly drawn) [1-(7-((R)-5-chloro-2-(4-((dimethylamino)methyl)oxazol-5-yl)-2,3-dihydrobenzofuran-7-yl)thieno[3,2-b]pyridin-2-yl)propan-1-ol] is below 1 µM.
The figure for `CC1CCC(=O)N1Cc1cc2nccc(-c3cc(Cl)cc4c3O[C@@H](C(=O)N3CCNCC3)C4)c2s1` (stereo partly drawn) [1-((7-((R)-5-chloro-2-(piperazine-1-carbonyl)-2,3-dihydrobenzofuran-7-yl)thieno[3,2-b]pyridin-2-yl)methyl)-5-methylpyrrolidin-2-one] is below 1 µM.
With `OCc1cc2nccc(-c3cc(Cl)cc4c3OC(c3nnn5c3CNCC5)C4)c2s1` (centres unmarked) [(7-(5-chloro-2-(4,5,6,7-tetrahydro-[1,2,3]triazolo[1,5-a]pyrazin-3-yl)-2,3-dihydrobenzofuran-7-yl)thieno[3,2-b]pyridin-2-yl)methanol], the IC50 was in the range of 1 to 10 µM.
